How the values were obtained:
Acetylcholinesterase (h) = molecular target: T1, Acetylcholinesterase (h) (Homo sapiens, UniProt P22303); test: Enzyme assay Acetylcholinesterase (h), photometry; type: biochemical
T1 construct: purchased Eurofins Discovery (contract assay)
Description: (§1) Methods—Enzyme and Uptake Assays: In vitro enzyme and uptake assays were conducted by Eurofins Discovery using human recombinant enzymes expressed in various mammalian and insect cell lines. Enzymatic activity was measured using appropriate substrates or tracers under conditions optimized for each target, as detailed in Table 7. Reactions were incubated at room temperature for a defined duration and terminated according to established protocols. The measured components (either enzymatic products or remaining substrate) were quantified using fluorimetry, photometry, scintillation counting, or LANCE technology, depending on the assay. Assay-specific parameters, including substrate identity, cell line source, incubation time, and detection method, are provided in Table 7.
(§2) All measurements were performed in technical replicates to ensure reproducibility and data quality.
(§3) Results were expressed both as a percentage of control-specific activity and as percent inhibition of control-specific activity. Percent activity was calculated as (measured specific activity/control specific activity)×100, and percent inhibition as 100−[(measured specific activity/control specific activity)×100], based on values obtained in the presence of test compounds. IC50 and EC50 values, along with Hill coefficients (nH), were determined by nonlinear regression analysis of inhibition or concentration-response curves generated from mean replicate values. Hill curve fitting was performed as previously described using software developed at Cerep and validated against SigmaPlot® 4.0 for Windows® (© 1997 by SPSS Inc.).

PDE3A(h) = molecular target: T2, PDE3A(h) (Homo sapiens, UniProt Q14432); test: Enzyme assay PDE3A(h), [3H]cAMP, scintillation counting; type: biochemical
T2 construct: host or cells: Sf21 cells
Description: as §1, §2, §3

5-HT3 (h) = molecular target: T3, 5-HT3 (h) (Homo sapiens, UniProt P46098); test: Radioligand binding 5-HT3 (h) (antagonist radioligand), [^3H]BRL 43694, CHO cells
T3 construct: expressed in transfected cells; host or cells: CHO cells
T3 sequence (P46098 24-478): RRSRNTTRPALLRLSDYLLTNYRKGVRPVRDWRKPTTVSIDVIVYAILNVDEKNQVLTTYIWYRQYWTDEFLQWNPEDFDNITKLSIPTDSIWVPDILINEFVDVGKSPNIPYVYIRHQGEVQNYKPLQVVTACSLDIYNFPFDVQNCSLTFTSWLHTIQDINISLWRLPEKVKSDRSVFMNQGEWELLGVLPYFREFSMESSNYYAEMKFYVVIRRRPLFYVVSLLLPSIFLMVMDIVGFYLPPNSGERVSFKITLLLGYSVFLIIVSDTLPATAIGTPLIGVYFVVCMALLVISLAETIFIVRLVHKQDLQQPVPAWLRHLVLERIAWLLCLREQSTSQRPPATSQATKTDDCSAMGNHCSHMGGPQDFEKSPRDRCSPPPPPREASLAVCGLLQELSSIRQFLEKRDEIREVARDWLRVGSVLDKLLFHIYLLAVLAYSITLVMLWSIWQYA
Description: Methods—Binding Assays: In vitro binding assays were performed using human recombinant receptors expressed in mammalian cell lines. Receptors were expressed in either HEK-293 or CHO cells depending on the target, and assay conditions (radioligand, concentration, nonspecific competitor, temperature, and incubation time) were optimized for each receptor. All assays were conducted in triplicate, and specific binding was quantified by scintillation counting as the detection method for each listed assay.
Specific binding was expressed as a percentage of control-specific binding, and percent inhibition was calculated using the formula in Ex. 8 above. Half-maximal inhibitory concentrations (IC50) were determined by non-linear regression analysis of the inhibition curves using the Hill equation (see Ex. 8). Inhibition constants (Ki) were calculated using the Cheng-Prusoff equation (see Ex. 8). KD values used in these calculations had been previously established for each receptor under the assay conditions (see Table 6). Data analysis was performed using software developed at Cerep and validated against SigmaPlot 4.0 for Windows.

AR (h) = molecular target: T4, AR (h) (Homo sapiens, UniProt P10275, T878A); test: Radioligand binding AR (h) (agonist radioligand), [^3H]methyltrienolone, LNCaP cells
T4 construct: human endog; endogenous in cells; host or cells: LNCaP cells
T4 sequence (P10275 1-920 T878A): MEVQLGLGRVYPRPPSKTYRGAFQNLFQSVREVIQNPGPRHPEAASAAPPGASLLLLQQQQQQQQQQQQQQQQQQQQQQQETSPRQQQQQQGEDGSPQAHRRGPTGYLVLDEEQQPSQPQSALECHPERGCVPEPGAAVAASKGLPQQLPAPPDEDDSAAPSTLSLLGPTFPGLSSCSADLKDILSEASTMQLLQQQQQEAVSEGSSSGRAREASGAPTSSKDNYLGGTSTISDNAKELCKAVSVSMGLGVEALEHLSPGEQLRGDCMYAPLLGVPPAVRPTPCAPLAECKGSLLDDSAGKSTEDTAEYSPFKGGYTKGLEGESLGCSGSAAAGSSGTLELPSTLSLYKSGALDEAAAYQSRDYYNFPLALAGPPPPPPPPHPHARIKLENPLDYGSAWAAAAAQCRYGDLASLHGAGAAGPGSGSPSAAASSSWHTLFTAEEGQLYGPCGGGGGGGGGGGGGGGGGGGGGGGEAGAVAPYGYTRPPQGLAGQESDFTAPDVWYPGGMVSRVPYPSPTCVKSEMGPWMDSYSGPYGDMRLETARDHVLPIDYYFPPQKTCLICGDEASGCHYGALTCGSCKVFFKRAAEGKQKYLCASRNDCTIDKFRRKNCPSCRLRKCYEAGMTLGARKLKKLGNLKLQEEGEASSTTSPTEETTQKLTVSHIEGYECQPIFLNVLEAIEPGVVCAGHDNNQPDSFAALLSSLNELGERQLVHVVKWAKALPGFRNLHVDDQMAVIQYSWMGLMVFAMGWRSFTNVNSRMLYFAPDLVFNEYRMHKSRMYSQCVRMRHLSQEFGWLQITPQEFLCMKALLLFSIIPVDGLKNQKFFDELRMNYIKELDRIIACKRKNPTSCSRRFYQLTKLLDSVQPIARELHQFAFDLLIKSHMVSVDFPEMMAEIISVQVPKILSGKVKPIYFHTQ

T2 sequence (Q14432 whole entry): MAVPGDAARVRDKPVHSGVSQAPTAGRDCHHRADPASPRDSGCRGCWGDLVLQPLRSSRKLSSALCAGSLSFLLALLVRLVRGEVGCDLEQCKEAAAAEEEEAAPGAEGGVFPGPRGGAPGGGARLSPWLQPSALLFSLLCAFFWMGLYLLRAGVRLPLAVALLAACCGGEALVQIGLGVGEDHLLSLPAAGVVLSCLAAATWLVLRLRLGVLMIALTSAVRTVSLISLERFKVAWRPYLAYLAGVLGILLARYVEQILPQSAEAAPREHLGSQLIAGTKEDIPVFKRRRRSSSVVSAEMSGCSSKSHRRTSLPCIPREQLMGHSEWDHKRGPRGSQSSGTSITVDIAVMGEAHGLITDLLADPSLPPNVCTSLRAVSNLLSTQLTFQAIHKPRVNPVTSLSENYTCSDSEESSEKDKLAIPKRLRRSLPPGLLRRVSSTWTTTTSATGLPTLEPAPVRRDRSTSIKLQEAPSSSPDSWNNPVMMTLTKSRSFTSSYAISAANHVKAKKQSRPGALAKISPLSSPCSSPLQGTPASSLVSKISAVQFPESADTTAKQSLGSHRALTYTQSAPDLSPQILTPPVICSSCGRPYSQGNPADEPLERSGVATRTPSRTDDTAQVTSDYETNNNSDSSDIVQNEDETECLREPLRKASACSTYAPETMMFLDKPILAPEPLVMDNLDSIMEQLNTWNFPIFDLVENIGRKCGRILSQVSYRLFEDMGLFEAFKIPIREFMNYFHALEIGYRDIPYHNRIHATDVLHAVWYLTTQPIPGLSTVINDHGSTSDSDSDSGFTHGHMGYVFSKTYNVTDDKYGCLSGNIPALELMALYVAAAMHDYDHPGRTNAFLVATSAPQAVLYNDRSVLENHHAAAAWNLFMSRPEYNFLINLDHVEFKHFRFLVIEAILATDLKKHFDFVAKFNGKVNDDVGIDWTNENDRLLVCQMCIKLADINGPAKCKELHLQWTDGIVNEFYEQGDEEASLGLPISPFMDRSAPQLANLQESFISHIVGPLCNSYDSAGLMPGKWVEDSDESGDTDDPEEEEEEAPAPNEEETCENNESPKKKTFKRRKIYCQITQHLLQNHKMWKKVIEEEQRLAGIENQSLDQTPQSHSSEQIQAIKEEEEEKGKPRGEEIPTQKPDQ
T1 sequence (P22303 32-614): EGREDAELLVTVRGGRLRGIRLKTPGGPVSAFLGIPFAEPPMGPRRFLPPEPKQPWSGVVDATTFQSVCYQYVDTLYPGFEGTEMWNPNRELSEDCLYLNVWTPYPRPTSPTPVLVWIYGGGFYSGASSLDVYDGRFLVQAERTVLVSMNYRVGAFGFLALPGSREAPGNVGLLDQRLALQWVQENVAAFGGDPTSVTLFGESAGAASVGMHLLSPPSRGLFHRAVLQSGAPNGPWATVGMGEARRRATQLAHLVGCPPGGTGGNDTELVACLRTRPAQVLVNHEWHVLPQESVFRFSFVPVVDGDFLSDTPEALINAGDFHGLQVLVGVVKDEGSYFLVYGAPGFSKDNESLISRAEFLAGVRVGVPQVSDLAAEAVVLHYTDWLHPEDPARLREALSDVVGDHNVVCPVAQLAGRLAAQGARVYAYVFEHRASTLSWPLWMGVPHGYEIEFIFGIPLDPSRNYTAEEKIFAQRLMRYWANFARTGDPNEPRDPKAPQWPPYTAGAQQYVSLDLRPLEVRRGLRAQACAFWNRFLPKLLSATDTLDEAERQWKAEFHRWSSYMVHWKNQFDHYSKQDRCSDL

Row | SMILES | Mean Percent Inhibition of Control Specific Binding (Acetylcholinesterase (h)) | Mean Percent Inhibition of Control Specific Binding (PDE3A(h)) | Mean Percent Inhibition of Control Specific Binding (5-HT3 (h)) | Mean Percent Inhibition of Control Specific Binding (AR (h))
1 | COCc1cc(CCN)c(O)cc1CC(C)C [2CiBu-2OH-5MM, 2-(2-aminoethyl)-5-isobutyl-4-(methoxymethyl)phenol] | 4.4% | 35.1% | −3.9% | −9.9%
2 | COCCc1cc(CCN)c(OC)cc1Br [Compound 2CB-5ME, reference compound] | −3.2% | −4.6% | −1.6% | −7.7%
3 | COCc1cc(CCN)c(OC)cc1Br [Compound 2CB-5MM, 2-(4-bromo-2-methoxy-5-(methoxymethyl)phenyl)ethan-1-amine] | −3.5% | 14.5% | 11.6% | −9.2%
4 | COCc1cc(CCN)c(OC)cc1CC(C)C [Compound 2CiBu-5MM, 2-[4-isobutyl-2-methoxy-5-(methoxymethyl)phenyl]ethanamine] | 8.0% | 8.2% | 2.6% | 3.0%

Reference: patent publication US12692221B2 (priority 2024, dated 2026)
